Data taken from patent US20240158446A1, “CYCLIC COMPOUND HAVING SELECTIVE INHIBITORY ACTION ON KRAS OVER HRAS AND NRAS” (CHUGAI SEIYAKU KABUSHIKI KAISHA, priority 2021, published 2024).
*1 amine or outer side, *2 acyl side, *3 side chain or, on linkers, in order; H or OH if unused. Where a SMILES comes first, the peptide text is derived from it. Bridges are numbered along the chain shown (N, C = ends). [ ]: non-standard residue; d: D form. The star is where a group is joined. hPhe(3-Cl-4-CF3) = N[C@@H](CCc1ccc(C(F)(F)F)c(Cl)c1)C(=O)O; X52 = CCCN([C@@H](Cc1ccc(OC(F)(F)F)cc1)C(=O)[*:2])[*:1]; NPrPhe(4-CF3) = CCCN[C@@H](Cc1ccc(C(F)(F)F)cc1)C(=O)O; X15 = Cc1ccc(C[C@@H](C(=O)[*:2])N(CCC(C)C)[*:1])cc1; X42 = Cc1ccc(C[C@@H](C(=O)[*:2])N(CC2CCC2)[*:1])cc1; X10 = C=CCN([C@@H](Cc1ccc(C)cc1)C(=O)[*:2])[*:1]; X53 = C#CCN([C@@H](Cc1ccc(C)cc1)C(=O)[*:2])[*:1]; NMeGly(cPent) = CN[C@H](C(=O)O)C1CCCC1; cisHyp = O=C(O)[C@@H]1C[C@H](O)CN1; NMeD = CN[C@@H](CC(=O)O)C(=O)O; NMeL = CN[C@@H](CC(C)C)C(=O)O; Morpholide = C1CN(*)CCO1; NMeA = CN[C@@H](C)C(=O)O; Ac5c = NC1(C(=O)O)CCCC1; Aze = O=C(O)[C@@H]1CCN1; Ethyl(2,2-F2) = FC(F)C*; Sar = CNCC(=O)O

Tests used:
[1] = target: GDP-bound KRAS wild-type protein (Homo sapiens, UniProt P01116); experiment: Binding to KRAS by surface plasmon resonance (SPR), Single Cycle Kinetics; conditions: SPR Single Cycle Kinetics, GDP-bound KRAS wild-type protein, 1:1 binding model; read-out: KRAS KD
[2] = target: GDP-bound HRAS wild-type protein (Homo sapiens, UniProt P01112); experiment: Binding to HRAS by surface plasmon resonance (SPR), Single Cycle Kinetics; conditions: SPR, GDP-bound HRAS wild-type protein vs GDP-bound KRAS wild-type protein
[3] = target: GDP-bound NRAS wild-type protein (Homo sapiens, UniProt P01111); experiment: Binding to NRAS by surface plasmon resonance (SPR), Single Cycle Kinetics; conditions: SPR, GDP-bound NRAS wild-type protein vs GDP-bound KRAS wild-type protein
GDP-bound NRAS wild-type protein, sequence (P01111 whole entry): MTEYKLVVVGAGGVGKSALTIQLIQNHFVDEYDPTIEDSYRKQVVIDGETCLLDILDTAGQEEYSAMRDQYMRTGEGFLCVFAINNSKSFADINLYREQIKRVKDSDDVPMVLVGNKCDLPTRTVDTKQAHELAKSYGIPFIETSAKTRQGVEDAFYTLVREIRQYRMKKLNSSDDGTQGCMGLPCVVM

GDP-bound KRAS wild-type protein, sequence (P01116 whole entry): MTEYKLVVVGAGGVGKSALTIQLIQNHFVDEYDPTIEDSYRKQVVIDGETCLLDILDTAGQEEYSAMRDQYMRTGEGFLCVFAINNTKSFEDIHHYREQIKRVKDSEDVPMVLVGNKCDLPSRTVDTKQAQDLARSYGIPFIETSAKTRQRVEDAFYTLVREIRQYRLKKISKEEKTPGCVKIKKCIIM
GDP-bound HRAS wild-type protein, sequence (P01112 whole entry): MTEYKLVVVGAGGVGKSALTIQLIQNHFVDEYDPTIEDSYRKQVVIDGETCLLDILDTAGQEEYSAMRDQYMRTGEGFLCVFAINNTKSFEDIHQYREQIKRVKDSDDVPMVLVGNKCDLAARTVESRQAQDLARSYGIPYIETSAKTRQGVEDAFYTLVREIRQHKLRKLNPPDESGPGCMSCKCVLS

| SMILES | Kd [1] [nM] | HRAS/KRAS (ratio of KD value for HRAS to KD value for KRAS) [2] | NRAS/KRAS (ratio of KD value for NRAS to KD value for KRAS) [3] |
| --- | --- | --- | --- |
| CC[C@H](C)[C@@H]1NC(=O)[C@H](CC(C)C)N(C)C(=O)C[C@@H](C(=O)N2CCOCC2)N(C)C(=O)[C@H](C2CCCC2)N(C)C(=O)C2(CCCC2)NC(=O)[C@@H]2CCCN2C(=O)[C@H](CCc2ccc(C(F)(F)F)c(Cl)c2)NC(=O)CN(C)C(=O)[C@H](Cc2ccc(C)cc2)N(CC2CCC2)C(=O)[C@@H]2CCN2C(=O)[C@H](C)N(C)C1=O [PP0083] ([NMeL]I[NMeA][Aze][X42][Sar][hPhe(3-Cl-4-CF3)]P[Ac5c][NMeGly(cPent)][NMeD]-Morpholide; lactam N-11) | 1.1 | – | – |
| C=CCN1C(=O)[C@@H]2CCN2C(=O)[C@H](C)N(C)C(=O)[C@H]([C@@H](C)CC)NC(=O)[C@H](CC(C)C)N(C)C(=O)C[C@@H](C(=O)N2CCOCC2)N(C)C(=O)[C@H](C2CCCC2)N(C)C(=O)C2(CCCC2)NC(=O)[C@@H]2CCCN2C(=O)[C@H](CCc2ccc(C(F)(F)F)c(Cl)c2)NC(=O)CN(C)C(=O)[C@@H]1Cc1ccc(C)cc1 [PP0088] ([NMeL]I[NMeA][Aze][X10][Sar][hPhe(3-Cl-4-CF3)]P[Ac5c][NMeGly(cPent)][NMeD]-Morpholide; lactam N-11) | 0.12 | – | – |
| C#CCN1C(=O)[C@@H]2CCN2C(=O)[C@H](C)N(C)C(=O)[C@H]([C@@H](C)CC)NC(=O)[C@H](CC(C)C)N(C)C(=O)C[C@@H](C(=O)N2CCOCC2)N(C)C(=O)[C@H](C2CCCC2)N(C)C(=O)C2(CCCC2)NC(=O)[C@@H]2CCCN2C(=O)[C@H](CCc2ccc(C(F)(F)F)c(Cl)c2)NC(=O)CN(C)C(=O)[C@@H]1Cc1ccc(C)cc1 [PP0090] ([NMeL]I[NMeA][Aze][X53][Sar][hPhe(3-Cl-4-CF3)]P[Ac5c][NMeGly(cPent)][NMeD]-Morpholide; lactam N-11) | 0.083 | – | – |
| CC[C@H](C)[C@@H]1NC(=O)[C@H](CC(C)C)N(C)C(=O)C[C@@H](C(=O)N2CCOCC2)N(C)C(=O)[C@H](C2CCCC2)N(C)C(=O)C2(CCCC2)NC(=O)[C@@H]2CCCN2C(=O)[C@H](CCc2ccc(C(F)(F)F)c(Cl)c2)NC(=O)CN(C)C(=O)[C@H](Cc2ccc(C)cc2)N(CCC(C)C)C(=O)CN(C)C(=O)CN(C)C1=O [PP0098] ([NMeL]I[Sar][Sar][X15][Sar][hPhe(3-Cl-4-CF3)]P[Ac5c][NMeGly(cPent)][NMeD]-Morpholide; lactam N-11) | 0.23 | – | – |
| CCCN1C(=O)[C@@H]2CCN2C(=O)[C@H](C)N(C)C(=O)[C@H]([C@@H](C)CC)NC(=O)[C@H](CC(C)C)N(C)C(=O)C[C@@H](C(=O)N2CCOCC2)N(C)C(=O)[C@H](C2CCCC2)N(C)C(=O)C2(CCCC2)NC(=O)[C@@H]2CCCN2C(=O)[C@H](CCc2ccc(C(F)(F)F)c(Cl)c2)NC(=O)CN(C)C(=O)[C@@H]1Cc1ccc(OC(F)(F)F)cc1 [PP0136] ([NMeL]I[NMeA][Aze][X52][Sar][hPhe(3-Cl-4-CF3)]P[Ac5c][NMeGly(cPent)][NMeD]-Morpholide; lactam N-11) | 1.3 | – | – |
| CCCN1C(=O)CN(C)C(=O)CN(C)C(=O)[C@H]([C@@H](C)CC)NC(=O)[C@H](CC(C)C)N(C)C(=O)C[C@@H](C(=O)N2CCOCC2)N(C)C(=O)[C@H](C2CCCC2)N(C)C(=O)C2(CCCC2)NC(=O)[C@@H]2CCCN2C(=O)[C@H](CCc2ccc(C(F)(F)F)c(Cl)c2)NC(=O)CN(C)C(=O)[C@@H]1Cc1ccc(OC(F)(F)F)cc1 [PP0137] ([NMeL]I[Sar][Sar][X52][Sar][hPhe(3-Cl-4-CF3)]P[Ac5c][NMeGly(cPent)][NMeD]-Morpholide; lactam N-11) | 0.47 | – | – |
| CCCN1C(=O)CN(C)C(=O)CN(C)C(=O)[C@H]([C@@H](C)CC)NC(=O)[C@H](CC(C)C)N(C)C(=O)C[C@@H](C(=O)N2CCOCC2)N(C)C(=O)[C@H](C2CCCC2)N(C)C(=O)C2(CCCC2)NC(=O)[C@@H]2C[C@H](OCC(F)F)CN2C(=O)[C@H](CCc2ccc(C(F)(F)F)c(Cl)c2)NC(=O)CN(C)C(=O)[C@@H]1Cc1ccc(C(F)(F)F)cc1 [PP0245] ([NMeL]I[Sar][Sar][NPrPhe(4-CF3)][Sar][hPhe(3-Cl-4-CF3)][cisHyp](Ethyl(2,2-F2))[Ac5c][NMeGly(cPent)][NMeD]-Morpholide; lactam N-11) | 0.37 | – | – |
| CCC[C@H]1C(=O)N[C@@H](C2CCCCC2)C(=O)N(C)CC(=O)N(C)[C@H]2C/C=C\CCN(C2=O)[C@@H](Cc2ccc(C)cc2)C(=O)N(C)CC(=O)N[C@@H](CCc2ccc(C(F)(F)F)c(Cl)c2)C(=O)N2C[C@H](OCC)C[C@H]2C(=O)NC2(CC(C)(C)C2)C(=O)N(C)[C@@H](C2CCCC2)C(=O)N(C)[C@H](C(=O)N(C)C)CC(=O)N1C [PP2998] | – | AA (a compound having 20 or more is denoted as AA) | A (a compound having 10 or more and less than 20 is denoted as A) |
| CCC[C@H]1C(=O)N[C@@H](C2CCOCC2)C(=O)N(C)CC(=O)N(C)[C@H]2C/C=C\CCN(C2=O)[C@@H](Cc2ccc(C)cc2)C(=O)N(C)CC(=O)N[C@@H](CCc2ccc(C(F)(F)F)c(Cl)c2)C(=O)N2C[C@H](OCC)C[C@H]2C(=O)NC2(CC(C)(C)C2)C(=O)N(C)[C@@H](C2CCCC2)C(=O)N(C)[C@H](C(=O)N(C)C)CC(=O)N1C [PP3002] | – | A (a compound having 10 or more and less than 20 is denoted as A) | A (a compound having 10 or more and less than 20 is denoted as A) |
| CCC[C@H]1C(=O)N[C@@H](C2CCCC2)C(=O)N(C)CC(=O)N(C)[C@H]2C/C=C\CCN(C2=O)[C@@H](Cc2ccc(C)cc2)C(=O)N(C)CC(=O)N[C@@H](CCc2ccc(C(F)(F)F)c(OC)c2)C(=O)N2C[C@H](OCC)C[C@H]2C(=O)NC2(CC(C)(C)C2)C(=O)N(C)[C@@H](CC(C)(C)C)C(=O)N(C)[C@H](C(=O)N(C)C)CC(=O)N1C [PP3005] | – | B (a compound having 3 or more and less than 10 is denoted as B) | A (a compound having 10 or more and less than 20 is denoted as A) |
| CCC[C@H]1C(=O)N[C@@H]([C@@H](C)CC)C(=O)N(C)CC(=O)N(C)[C@H]2C/C=C\CCN(C2=O)[C@@H](Cc2ccc(C)cc2)C(=O)N(C)CC(=O)N[C@@H](CCc2ccc(C(F)(F)F)c(OC)c2)C(=O)N2C[C@H](OCC)C[C@H]2C(=O)NC2(CC(C)(C)C2)C(=O)N(C)[C@@H](CC(C)C)C(=O)N(C)[C@H](C(=O)N(C)C)CC(=O)N1C [PP3008] | – | A (a compound having 10 or more and less than 20 is denoted as A) | A (a compound having 10 or more and less than 20 is denoted as A) |
| CCC[C@H]1C(=O)N[C@@H]([C@@H](C)CC)C(=O)N(C)CC(=O)N(C)[C@H]2C/C=C\CCN(C2=O)[C@@H](Cc2ccc(C)cc2)C(=O)N(C)CC(=O)N[C@@H](CCc2ccc(C(F)(F)F)c(OC)c2)C(=O)N2CC3(CC3)C[C@H]2C(=O)NC2(CC(C)(C)C2)C(=O)N(C)[C@@H](CC(C)(C)C)C(=O)N(C)[C@H](C(=O)N(C)C)CC(=O)N1C [PP3009] | – | A (a compound having 10 or more and less than 20 is denoted as A) | A (a compound having 10 or more and less than 20 is denoted as A) |
| CCC[C@H]1C(=O)N[C@@H](C2CCCC2)C(=O)N(C)CC(=O)N(C)[C@H]2C/C=C\CCN(C2=O)[C@@H](Cc2ccc(C)cc2)C(=O)N(C)CC(=O)N[C@@H](CCc2ccc(C(F)(F)F)c(OC)c2)C(=O)N2CC3(CC3)C[C@H]2C(=O)NC2(CC(C)(C)C2)C(=O)N(C)[C@@H](CC(C)(C)C)C(=O)N(C)[C@H](C(=O)N(C)C)CC(=O)N1C [PP3010] | – | B (a compound having 3 or more and less than 10 is denoted as B) | B (a compound having 3 or more and less than 10 is denoted as B) |
| CCC[C@H]1C(=O)N[C@@H](C2CCCCC2)C(=O)N(C)CC(=O)N(C)[C@H]2C/C=C\CCN(C2=O)[C@@H](Cc2ccc(C)cc2)C(=O)N(C)CC(=O)N[C@@H](CCc2ccc(C(F)(F)F)c(Cl)c2)C(=O)N2C[C@H](OCC)C[C@H]2C(=O)NC2(CC(C)(C)C2)C(=O)N(C)[C@@H](CC(C)C)C(=O)N(C)[C@H](C(=O)N(C)C)CC(=O)N1C [PP3021] | – | A (a compound having 10 or more and less than 20 is denoted as A) | AA (a compound having 20 or more is denoted as AA) |
| CCC[C@H]1C(=O)N[C@@H](C2CCOCC2)C(=O)N(C)CC(=O)N(C)[C@H]2C/C=C\CCN(C2=O)[C@@H](Cc2ccc(C)cc2)C(=O)N(C)CC(=O)N[C@@H](CCc2ccc(C(F)(F)F)c(Cl)c2)C(=O)N2C[C@H](OCC)C[C@H]2C(=O)NC2(CC(C)(C)C2)C(=O)N(C)[C@@H](CC(C)(C)C)C(=O)N(C)[C@H](C(=O)N(C)C)CC(=O)N1C [PP3026] | – | A (a compound having 10 or more and less than 20 is denoted as A) | A (a compound having 10 or more and less than 20 is denoted as A) |
| CCO[C@@H]1C[C@H]2C(=O)NC3(CC(C)(C)C3)C(=O)N(C)[C@@H](C3CCCC3)C(=O)N(C)[C@H](C(=O)N(C)CC)CC(=O)N(C)[C@H]3C/C=C/c4ccc(cc4)C[C@@H](C(=O)N(C)CC(=O)N[C@@H](CCc4ccc(Cl)c(Cl)c4)C(=O)N2C1)N1CC/C=C\C[C@@H](C1=O)N(C)C(=O)CN(C)C(=O)[C@H]([C@@H](C)CC)NC3=O [PP3056] | – | A (a compound having 10 or more and less than 20 is denoted as A) | A (a compound having 10 or more and less than 20 is denoted as A) |
| CCO[C@@H]1C[C@H]2C(=O)NC3(CC(C)(C)C3)C(=O)N(C)[C@@H](C3CCCC3)C(=O)N(C)[C@H](C(=O)N(C)C)CC(=O)N(C)[C@H]3CCCCC/C=C/c4ccc(cc4)C[C@@H](C(=O)N(C)CC(=O)N[C@@H](CCc4ccc(Cl)c(Cl)c4)C(=O)N2C1)N1CC/C=C\C[C@@H](C1=O)N(C)C(=O)CN(C)C(=O)[C@H]([C@@H](C)CC)NC3=O [PP3057] | – | B (a compound having 3 or more and less than 10 is denoted as B) | A (a compound having 10 or more and less than 20 is denoted as A) |
